How the values were obtained:
hERG ion channel = hERG ion channel (Homo sapiens, UniProt Q12809); test: hERG ion channel activity
[1] = Pharmacokinetic study, oral administration in mice; assay type: in vivo, mouse
Method: Mice were dosed orally with 10mg/kg Poloppin-II, and blood samples were taken from 3 mice per time point, and frozen until all samples were available. Plasma was prepared from each sample and Poloppin-II levels analysed by a pre-established methodology (UHPLC-TOF MS using electrospray ionisation).

[2] = system: HCT116 (KRAS G13D) xenografts; test: Xenograft study, tumour volume; assay type: in vivo, mouse; settings: for Group Mean at Day 15 (tumour volume): HCT116 xenograft, vehicle 778
Method: Male athymic mice were purchased from Harlan (UK) and acclimatised for 7 days prior to study commencement. Animals were housed in IVC cages (5 per cage) with individual mice identified by tail marking. All animals were allowed free access to a standard certified commercial diet and sanitised water during the study. The holding room was maintained under standard conditions: 20-24°C, 40-70% humidity and a 12h light/dark cycle. All experiments were performed under approved ethical and procedural guidelines.
(§1) Tumours were established by sub-cutaneous implantation of 2 x 10^6 HCT116 cells suspended in 50% Matrigel into the flanks of a cohort of mice. When a sufficient number of mice had developed tumours of approximately 100mm3, they were randomly assigned to three groups: Vehicle, 50mg/kg Poloppin-II or 200mg/kg Poloppin-II, with 10 mice per group. Mice were treated orally according to their treatment group once every three days. Tumour volume was measured three times per week with calipers. Body weight was measured three times per week. In addition to mice assigned to tumour volume efficacy arm of the study, 16 mice with established HCT116 xenografts were assigned to either Vehicle or 200mg/kg oral dosing groups, with 8 mice per group. 24 hours after a single dose, mice were euthanised, tumours removed, snap frozen and 30-50microgram of lysates were analysed by Western blotting on 4-12% Bis-Tris acrylamide gels, and transferred using the Invitrogen iBlot dry system. Phospho-Histone H3 was detected using Abcam antibody ab5176, beta-actin with Sigma antibody a5316. […] HRP was visualised with ECL-Plus (GE Healthcare).

[3] = Tolerability and body weight in the xenograft study; assay type: in vivo, mouse; settings: 50 mg/kg oral, mice; no adverse health observations or recorded weight loss
Method: as §1

phospho-Ser10 histone H3 = test: Phospho-histone H3 (Ser10) in xenograft tumour lysates (Western blot); assay type: in vivo, mouse; settings: within 24 hr after single 200mg/kg oral dose, compared with vehicle
Method: as §1

human cell lines = test: Dose-dependent mitotic arrest (Figure 1F); assay type: cell-based
Method: Cells were plated at 10 000/well in 96-well plates and incubated overnight. The following day compound stocks in DMSO were diluted in medium then added to cells with a maximum final DMSO concentration on cells of 0.2%. Cells were incubated with compound for 24 h then fixed in 3.7% formaldeyde. Cells were permeabilised with 0.1% Triton X-100 then incubated with anti-phospho-histone H3 (Ser10) antibody (Abcam ab5176). The cells were washed with PBS then incubated with AlexaFluor 488 labelled goat anti-rabbit IgG (Invitrogen A11034) in the presence of 4ug/ml Hoechst 33342 (Invitrogen H3570). Cells were washed in PBS then imaged on an Arrayscan VTi HCS instrument (Thermo Fisher) using the Target Activation V4 Bioapplication. A user-defined threshold was applied to identify mitotic cells based on the intensity of phospho-histone H3 staining.

MEFs KRAS WT p53 MUT = test: Cell viability in MEFs, KRAS WT p53 MUT; assay type: cell-based; settings: Mus musculus
Method: (§2) KrasWT mouse embryonic fibroblasts (MEFs) were derived from conditional LSL-Trp53^R172H/+ embryos. LSL-Trp53^R172H/+, LSL-Kras^G12D/+ ([Hingorani et al., 2005]) strains were interbred to obtain LSL-Kras^G12D/+, LSL-Trp53^R172H/+ Kras^G12D embryos for MEF preparation. Briefly, MEFs were derived from E13.5 embryos after decapitation and evisceration. Finely minced tissue was passed through a 16-G needle two or three times before dissociated cells were cultured in DMEM with 10% FBS. Cre-mediated recombination to activate the Kras^G12D allele was induced via addition of 500nM 4-OH Tamoxifen to the culture media overnight.

MEFs KRAS MUT p53 MUT = test: Cell viability in MEFs, KRAS MUT p53 MUT; assay type: cell-based; settings: Mus musculus
Method: as §2

PLK1 PBD = PLK1 PBD (Homo sapiens, UniProt P53350); test: Isothermal titration calorimetry; assay type: binding; set-up: In all titrations, PBDaa345-603 protein was used at 25 μM; GST (N, cleaved yes); made in house; host or cells: E. coli C41; settings: ITC, 20 °C
Method: In all titrations, PBDaa345-603 protein was used at 25 μM and buffered in HEPES (50 mM, pH 7.4), NaCl (200 mM), and DTT (1mM). Protein was diluted into buffer with DMSO at 5% (v/v). Poloppin was prepared by diluting from DMSO stock into the same buffer containing DMSO at 5% (v/v). Great care was taken to match the concentration of DMSO in the ligand and protein samples as closely as possible. In a typical experiment, protein (25 μM) was loaded in the sample cell, and a total of 20 injections of 8μL were made at 2 min intervals from a 200 μL syringe rotating at 1000 rpm and loaded with ligand solution (0.5 mM). […] The thermodynamic parameters were obtained by fitting the data to a single-site binding model with a stoichiometry of 1. ITC experiments were performed at 20 °C with a MicroCal ITC200 instrument, and all data were analysed with the software implemented in Origin (version 7) ([Scott et al., 2015]).

hERG ion channel, sequence (Q12809 whole entry): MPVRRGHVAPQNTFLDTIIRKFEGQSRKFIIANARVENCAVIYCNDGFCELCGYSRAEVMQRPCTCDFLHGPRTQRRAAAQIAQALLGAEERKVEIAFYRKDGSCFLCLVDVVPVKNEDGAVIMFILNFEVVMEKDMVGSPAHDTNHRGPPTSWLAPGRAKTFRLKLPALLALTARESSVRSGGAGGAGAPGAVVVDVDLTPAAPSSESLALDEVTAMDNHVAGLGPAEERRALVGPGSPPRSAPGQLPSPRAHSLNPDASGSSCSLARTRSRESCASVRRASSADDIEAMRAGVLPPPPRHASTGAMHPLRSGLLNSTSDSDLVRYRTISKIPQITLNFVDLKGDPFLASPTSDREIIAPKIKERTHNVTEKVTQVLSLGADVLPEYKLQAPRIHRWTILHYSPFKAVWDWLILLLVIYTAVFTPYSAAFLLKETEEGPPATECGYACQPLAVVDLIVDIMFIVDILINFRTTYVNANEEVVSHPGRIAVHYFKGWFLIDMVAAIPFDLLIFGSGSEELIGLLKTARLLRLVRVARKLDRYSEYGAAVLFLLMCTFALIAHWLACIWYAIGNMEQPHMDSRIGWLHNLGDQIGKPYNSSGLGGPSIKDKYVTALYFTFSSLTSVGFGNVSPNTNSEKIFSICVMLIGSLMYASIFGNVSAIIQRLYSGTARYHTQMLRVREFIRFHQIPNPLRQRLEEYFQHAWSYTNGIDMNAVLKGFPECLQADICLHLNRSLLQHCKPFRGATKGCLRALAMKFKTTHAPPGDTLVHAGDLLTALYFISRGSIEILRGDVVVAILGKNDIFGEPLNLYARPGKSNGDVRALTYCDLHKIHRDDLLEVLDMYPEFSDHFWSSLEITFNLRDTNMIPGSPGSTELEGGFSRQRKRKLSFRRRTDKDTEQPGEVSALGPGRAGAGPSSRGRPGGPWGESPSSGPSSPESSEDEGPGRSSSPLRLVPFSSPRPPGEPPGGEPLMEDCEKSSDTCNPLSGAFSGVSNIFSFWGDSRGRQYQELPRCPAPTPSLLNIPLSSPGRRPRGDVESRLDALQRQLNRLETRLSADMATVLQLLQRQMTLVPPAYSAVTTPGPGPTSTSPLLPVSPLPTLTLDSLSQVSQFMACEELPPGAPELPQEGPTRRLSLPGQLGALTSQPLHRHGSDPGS
PLK1 PBD, sequence (P53350 345-603): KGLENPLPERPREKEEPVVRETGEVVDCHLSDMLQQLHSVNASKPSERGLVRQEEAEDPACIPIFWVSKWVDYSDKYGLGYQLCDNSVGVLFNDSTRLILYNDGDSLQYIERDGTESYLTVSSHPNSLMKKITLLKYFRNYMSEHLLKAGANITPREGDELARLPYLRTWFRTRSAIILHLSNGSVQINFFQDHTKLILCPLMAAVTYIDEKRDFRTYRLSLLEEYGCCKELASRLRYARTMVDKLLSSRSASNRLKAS

SMILES | activity against the hERG ion channel (hERG ion channel) | bioavailability ([1]; mouse, plasma, 10 mg/kg oral) | clearance ([1]; mouse, plasma, oral, 10 mg/kg, read-out: calculated clearance) | Vd ([1]; mouse, plasma, oral, 10 mg/kg, read-out: volume of distribution) | half-life ([1]; mouse, plasma, per oral, 10 mg/kg) | time for which plasma concentration >100 nM is maintained ([1]; single oral dose of 10 mg/kg) | in vivo plasma concentration maintained ([1]; single oral dose of 10 mg/kg, for >24 hr) | growth of xenografted tumors ([2]; 50 mg/kg oral, HCT116 KRAS G13D) | Group Mean at Day 15 (tumour volume) ([2]; 50mg/kg oral every three days) | Group Mean at Day 15 (tumour volume) ([2]; 200mg/kg oral, treatment suspended after seven days) | tolerability during the study [3] | phospho-Ser10 histone H3 expression in xenografts (phospho-Ser10 histone H3) | EC50 (human cell lines) | GI50 (MEFs KRAS WT p53 MUT; MEFs KRAS WT p53 MUT) | GI50 (MEFs KRAS WT p53 MUT; MEFs KRAS WT p53 MUT+4OHT) | GI50 (MEFs KRAS MUT p53 MUT; MEFs KRAS MUT p53 MUT) | GI50 (MEFs KRAS MUT p53 MUT; MEFs KRAS MUT p53 MUT+4OHT) | Kd (PLK1 PBD)
CN(C)CCNC(=O)c1ccc(-c2ccc(-c3ccc(Cl)cc3)n2-c2ccccc2C(F)(F)F)cc1 [Poloppin-II] | inactive | > 90% | 17 mL/min/kg | 23 L/kg | 900 min | > 24 h | > 100 nM | reduced the growth of xenografted tumors | 415 mm³ | 371 mm³ | well tolerated | increased levels |  |  |  |  |  | 
O=C(O)CCc1ccc(-c2ccc(Br)cc2)n1-c1ccccc1C(F)(F)F [Poloppin] |  |  |  |  |  |  |  |  |  |  |  |  | 29.9 ± 1.12 µM | 51.1 ± 1.05 µM | 43.7 ± 1.09 µM | 49.5 ± 1.05 µM | 17.6 ± 1.22 µM | 29.5 µM

Reference: paper PMC5563081, “Modulating Protein-Protein Interactions of the Mitotic Polo-like Kinases to Target Mutant KRAS” (Cell Chemical Biology, 2017)
